# Test results taken from publication PMC6222380 (Molecules : A Journal of Synthetic Chemistry and Natural …, 2018).
# Several values for one entry are separate records, joined by “and”; a condition that tells them apart may be missing. Identical values can stand only once. Like-named read-outs stand apart in the source and are kept apart here.
# How the values were obtained:
# CB1 receptor = biological target: T1, CB1 receptor (Homo sapiens, UniProt P21554); assay: Competitive [3H]-CP55,940 radioligand binding assay, CB1; conditions: for Further binding analysis at CB1 (binding curve outcome): curves plateaued well before 100% receptor occupancy (Figure S2)
# T1 construct: transiently transfected with full-length human recombinant cDNA (OriGene, Rockville, MD, USA); host or cells: HEK293
# T1 sequence (P21554 whole entry): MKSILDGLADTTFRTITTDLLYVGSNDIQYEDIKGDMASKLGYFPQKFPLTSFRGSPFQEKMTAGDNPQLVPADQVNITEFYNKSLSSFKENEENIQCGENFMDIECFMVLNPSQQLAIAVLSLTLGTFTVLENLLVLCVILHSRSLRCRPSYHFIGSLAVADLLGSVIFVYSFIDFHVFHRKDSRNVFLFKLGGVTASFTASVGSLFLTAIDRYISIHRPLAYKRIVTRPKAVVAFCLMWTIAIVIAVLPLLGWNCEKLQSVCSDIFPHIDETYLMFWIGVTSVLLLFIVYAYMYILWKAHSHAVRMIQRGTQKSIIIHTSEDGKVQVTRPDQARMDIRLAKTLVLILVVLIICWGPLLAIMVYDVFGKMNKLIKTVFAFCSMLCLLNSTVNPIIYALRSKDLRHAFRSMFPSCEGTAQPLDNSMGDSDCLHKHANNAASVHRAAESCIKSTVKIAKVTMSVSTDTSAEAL
# Protocol: (§1) HEK293 cells were collected and transiently transfected with full-length human recombinant cDNA (OriGene, Rockville, MD, USA) containing expression clones to generate separate cell lines expressing either the CB1 or CB2 receptors (50 µg/mL) using electroporation (70 ms, single pulse, 150 volts). Transfected cells were grown in a 150 cm^2 Petri dish at 37 °C. G418 antibiotic solution (800 μg/mL) was used for selection. After selection, the HEK293 cells were further cultured until single colonies were obtained. The colonies with binding ratio (%) over 80% were chosen for binding and functional assays.
# (§2) Cell plasma membranes were prepared from cells with stable expression of CB1 or CB2 receptors. Cells grown to confluency were lysed and scraped in cold 50 mM Tris-HCl buffer at pH 7.4 and then centrifuged at 1000 rpm for 10 min at 4 °C. The supernatant was discarded while the pellets were resuspended in the same buffer. A Sonic Dismembrator Model 100 (Fisher Scientific, Pittsburgh, PA, USA) was used to homogenize the cell suspension for 30 s, which was then centrifuged at 3165 rpm for 10 min at 4 °C to separate the membranes and cytosolic fractions. The supernatant was saved, and the pellet underwent the suspension and homogenization process repeated two more times with the same conditions. The supernatants were combined and centrifuged at 13,650 rpm for 40 min at 4 °C. The pellet was re-suspended in cold 50 mM Tris-HCl buffer, aliquoted into 2 mL vials, and stored at −80 °C. The total membrane protein concentration was measured using a Pierce BCA Protein Assay Kit (Thermo Scientific, Rockford, IL, USA) as per the manufacturer’s protocol.
# (§3) Competitive binding assays were performed with a modified rapid filtration assay described by Ma et al. (2007) and Felder et al. (1992). […] The reaction was terminated via rapid vacuum filtration with cold Tris-HCl with 0.1% BSA through a 96-well UniFilter GF/C filter precoated with 0.5% Polyethyleneimine (PEI,) to separate bound and unbound radioligand. Filter plates were dried at 50 °C for at least 30 min, then 25 μL MicroScint-20 was applied to each filter and the plates were read on a TopCount NXT HTS Microplate Scintillation Counter (PerkinElmer, Waltham, MA). Filter bound radioactivity was recorded in counts per minute (CPM).
# (§4) The percent binding of the nonlabeled control to the receptor was calculated using total, specific, and nonspecific binding. […] All the experimental data were analyzed using a nonlinear regression curve fit model using GraphPad Prism 5.0 software (GraphPad Software, Inc., San Diego, CA, USA) and the Kd value was calculated. Each compound was tested in triplicate, unless stated otherwise.
# (§5) Percent displacement of radioligand was determined using the following equation:(1) % displacement of radioligand=100 –(compound.CPM−nonspecific.CPM/specific.CPM ×100)
# (§6) The IC50 and Ki values were calculated from a nonlinear regression curve fit model using GraphPad Prism 5.0 software (GraphPad Software, Inc., San Diego, CA, USA).
# CB2 receptor = biological target: T2, CB2 receptor (Homo sapiens, UniProt P34972); assay: Competitive [3H]-CP55,940 radioligand binding assay, CB2; conditions: for IC50: Table 1, superscript a = up to solubility limit, read-out: IC50 ± SEM CB2; for Ki: read-out: Ki ± SEM CB2
# T2 construct: transiently transfected with full-length human recombinant cDNA (OriGene, Rockville, MD, USA); host or cells: HEK293
# T2 sequence (P34972 whole entry): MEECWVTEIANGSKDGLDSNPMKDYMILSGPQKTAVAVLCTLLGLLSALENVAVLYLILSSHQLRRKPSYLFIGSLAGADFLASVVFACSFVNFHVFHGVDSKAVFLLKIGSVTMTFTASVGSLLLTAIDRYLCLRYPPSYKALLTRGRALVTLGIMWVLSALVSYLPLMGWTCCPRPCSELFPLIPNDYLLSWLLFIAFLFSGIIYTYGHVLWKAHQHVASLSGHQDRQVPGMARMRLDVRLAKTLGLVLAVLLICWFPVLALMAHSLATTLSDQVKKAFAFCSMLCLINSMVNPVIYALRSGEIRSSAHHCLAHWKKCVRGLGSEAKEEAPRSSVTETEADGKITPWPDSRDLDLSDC
# Protocol: as §1, §2, §3, §4, §5, §6
# [1] = biological target: T3, human cannabinoid type 1 receptor (Homo sapiens, UniProt P21554); assay: CB1 GTPγS functional assay; type: biochemical
# T3 construct: transiently transfected with full-length human recombinant cDNA (OriGene, Rockville, MD, USA); host or cells: HEK293
# T3 sequence (P21554 whole entry): as the sequence (P21554 whole entry) above
# Protocol: The CB1 GTPγS functional assays were performed as previously described with some modifications. The assays were performed in […] of 50 mM Tris-HCl, pH = 7.4, 150 mM NaCl, 9 mM MgCl2, 0.2 mM EDTA, 1.4 mg/mL essentially fatty acid free BSA, 50 pM [^35S]-GTPγS ([^35S]-guanosine 5′-(γ-thio) triphosphate (PerkinElmer, Waltham, Massachusetts)), and 30 μg of protein per well harvested from HEK293 cells stably transfected with a plasmid overexpressing the human cannabinoid type 1 receptor. […] Plates were incubated for 90 min at 37 °C with gentle agitation in 96-well microplates, harvested with a PerkinElmer FilterMate Harvester through Unifilter GF/B filter plates (prewetted for 30 min with 0.3% BSA), and then washed 10× with […] of ice-cold 50 mM TrisHCl, pH 7.4. The filter plates were dried at 50 °C for at least 30 min. The radioactivity retained on the filters was quantified by adding […] MicroScint20 per well, incubating the filter plate overnight at room temperature to allow the radioactivity to solubilize into the scintillation fluid, and counting on a TopCount NXT Microplate Scintillation counter. Percent over basal was calculated in Microsoft Excel by subtracting the mean basal control from each value obtained and then dividing by the basal specific activity (mean basal control∓mean nonspecific binding control). Dose response curves (± SEM) of percent over basal versus log of the molar concentration of unlabeled ligand(s) were generated by a nonlinear curve fit model using GraphPad Prism 5.0 software.
# [2] = Table S1 preliminary screening, 10 μM
# [3] = Table 1, initial full-curve binding, superscript a = up to solubility limit, read-out: IC50 ± SEM CB1
# [4] = Table 1 and text, initial full-curve binding, read-out: Ki ± SEM CB1
smiles,measurement,setting,value
O=C(O)C(Cc1ccccc1)NCc1c(O)ccc2c(-c3ccccc3)cc(=O)oc12 (stereo not shown) [Compound 1],% displacement at 10 μM CB1,CB1 receptor; [2],14.1%
COc1ccc2[nH]c3c(c2c1)CCN1C(=O)CN(CCc2c[nH]c4ccccc24)C(=O)[C@]31C [Compound 2],IC50,CB1 receptor; [3],3.2 ± 1 µM
same,Ki,CB1 receptor; [4],1.6 µM and 1.62 µM
same,% displacement at 10 μM CB1,CB1 receptor; [2],81.8%
same,IC50,CB2 receptor,3.25 ± 0.5 µM
same,Ki,CB2 receptor; Table 1 and text,1.6 µM and 1.62 µM
same,% displacement at 10 μM CB2,CB2 receptor; [2],67.2%
same,EC50,[1],0.759 µM
same,Functional phenotype at CB1 in GTPγS assay,[1],inverse agonists
COCCN1C(=O)C(O)=C(C(=O)c2ccc3c(c2)CC(C)O3)C1c1ccc(C(C)C)cc1 (stereo not shown) [Compound 3],% displacement at 10 μM CB1,CB1 receptor; [2],~ 10%
same,Ki,CB2 receptor; Table 1 and text,2.6 µM
same,% displacement at 10 μM CB2,CB2 receptor; [2],51% and > 50%
COc1ccccc1NC(=O)C1CC(O)CN1C(=O)OCc1ccccc1 (stereo not shown) [Compound 4],% displacement at 10 μM CB1,CB1 receptor; [2],13.9%
COc1cc(C)cc2oc(=O)c(CC(=O)N[C@@H](CSCc3ccccc3)C(=O)O)c(C)c12 [Compound 5],% displacement at 10 μM CB1,CB1 receptor; [2],14%
same,% displacement at 10 μM CB2,CB2 receptor; [2],15.5%
Cc1cc(O)c2c(C)c(CC(=O)N[C@@H](CSCc3ccccc3)C(=O)O)c(=O)oc2c1 [Compound 6],% displacement at 10 μM CB1,CB1 receptor; [2],28%
same,% displacement at 10 μM CB2,CB2 receptor; [2],26.7%
COc1ccc2[nH]c3c(c2c1)CCNC3c1c(O)n(CCc2ccccc2)c(=S)[nH]c1=O (stereo not shown) [Compound 7],Further binding analysis at CB1 (binding curve outcome),CB1 receptor,no true affinity
same,% displacement at 10 μM CB2,CB2 receptor; [2],15.7%
O=C(COc1cc(O)c2c(=O)cc(-c3ccccc3)oc2c1)NCCCN1CCCC1=O [Compound 9],% displacement at 10 μM CB1,CB1 receptor; [2],28.6%
same,% displacement at 10 μM CB2,CB2 receptor; [2],30.2%
COc1ccc2c(ccn2CCC(=O)N[C@@H](Cc2c[nH]c3ccccc23)C(=O)O)c1 [Compound 10],% displacement at 10 μM CB1,CB1 receptor; [2],30.2%
same,% displacement at 10 μM CB2,CB2 receptor; [2],17.3%
COc1ccc(-n2cc(C(=O)O)c3c2C(c2ccc(O)c(OC)c2)CC(=O)N3)cc1 (stereo not shown) [Compound 11],% displacement at 10 μM CB1,CB1 receptor; [2],37.6%
same,% displacement at 10 μM CB2,CB2 receptor; [2],13.1%
COC(=O)CC(c1ccc2c(c1)OCO2)c1oc(CSc2ccccc2)cc(=O)c1O (stereo not shown) [Compound 12],IC50,CB1 receptor; [3],> 5.3 µM
same,Ki,CB1 receptor; [4],> 2.6 µM
same,% displacement at 10 μM CB1,CB1 receptor; [2],69.9% and > 50%
same,IC50,CB2 receptor,> 5.93 µM
same,Ki,CB2 receptor; Table 1 and text,> 2.97 µM
same,% displacement at 10 μM CB2,CB2 receptor; [2],63% and > 50%
same,EC50,[1],1.6 µM
same,Functional phenotype at CB1 in GTPγS assay,[1],inverse agonists
O=c1[nH]n(C2CCCCCC2)c2nc3c(oc4c(O)c(O)ccc43)c(-c3ccc(O)cc3)c12 [Compound 13],% displacement at 10 μM CB1,CB1 receptor; [2],23.1%
same,% displacement at 10 μM CB2,CB2 receptor; [2],37.4%
COC(=O)CC(c1ccc(O)cc1)c1oc(CSc2ccccc2)cc(=O)c1O (stereo not shown) [Compound 14],% displacement at 10 μM CB1,CB1 receptor; [2],18.7%
same,% displacement at 10 μM CB2,CB2 receptor; [2],30%
Cc1ccc(COc2ccc(-c3nc(N)ncc3Oc3ccccc3Br)c(O)c2)cc1 [Compound 15],Further binding analysis at CB1 (binding curve outcome),CB1 receptor,no true affinity
same,% displacement at 10 μM CB2,CB2 receptor; [2],35.5%
Cc1noc(-c2ccc(O)cc2O)c1-c1ccc(Br)cc1 [Compound 16],IC50,"CB1 receptor; 16 rescreened, data from Figure 4, up to solubility limit, read-out: IC50 ± SEM CB1 (rescreen)",0.242 ± 0.07 µM
same,Ki,"CB1 receptor; 16 rescreened, data from Figure 4, up to solubility limit, read-out: Ki ± SEM CB1 (rescreen)",0.121 ± 0.04 µM
same,IC50,CB1 receptor; [3],20.8 ± 4.9 µM
same,Ki,CB1 receptor; [4],10.4 ± 2.5 µM
same,% displacement at 10 μM CB1,CB1 receptor; [2],61.8%
same,Ki,"CB1 receptor; rescreen experiment, value printed in picture, read-out: CB1 Receptor Binding Ki (printed in Figure 4)",0.121 µM
same,% displacement at 10 μM CB2,CB2 receptor; [2],40.2%
same,Functional phenotype at CB1 in GTPγS assay,[1],inverse agonist
same,EC50,[1]; read-out: EC50 CB1 GTPγS,0.128 µM
COC(=O)c1ccc(C=C2Oc3c(ccc(O)c3CN(CC(C)C)CC(C)C)C2=O)cc1 [Compound 17],Further binding analysis at CB1 (binding curve outcome),CB1 receptor,no true affinity
same,% displacement at 10 μM CB2,CB2 receptor; [2],35%
CN(Cc1ccccc1)Cc1c(O)ccc2c1OC(=Cc1cn(C)c3ccccc13)C2=O [Compound 18],IC50,CB1 receptor; [3],24.6 ± 2.6 µM
same,Ki,CB1 receptor; [4],12.3 ± 1.3 µM
same,% displacement at 10 μM CB1,CB1 receptor; [2],69%
same,IC50,CB2 receptor,0.101 ± 0.035 µM
same,Ki,CB2 receptor; Table 1 and text,0.051 ± 0.01 µM
same,% displacement at 10 μM CB2,CB2 receptor; [2],61.2%
CCCCCCc1cc(-c2onc(C)c2-c2ccc(Br)cc2)c(O)cc1OC [PCB-164],% displacement at 10 μM CB1,"CB1 receptor; Table 2, 10 µM",29.8%
same,Ki,"CB2 receptor; Table 2, analogs of compound 16",0.156 ± 0.0173 µM
same,% displacement at 10 μM CB2,"CB2 receptor; Table 2, 10 µM",97.2%
Oc1ccc(-c2onc(C(F)(F)F)c2-c2ccccc2)c(O)c1 [PCB-165],Ki,"CB1 receptor; Table 2, analogs of compound 16, read-out: Ki ± SEM CB1",> 10 µM
same,% displacement at 10 μM CB1,"CB1 receptor; Table 2, 10 µM",33.0%
